Results: patent US20100215594A1, “Tyrosinase Inhibitors” (priority 2007, published 2010)

Biological target: tyrosinase from fungi
Experiment: Tyrosinase assay (L-DOPA as substrate, optical density at 470 nm)
Assay type: biochemical
Details: tyrosinase from fungi (16U, Fluka), phosphate buffer pH 6.8, 10 min pre-incubation at 25° C., read-out: IC50 (concentration of the test compound at which 50% of the tyrosinase activity is inhibited)
Experimental: The action of the compounds I or Ia as skin lighteners is tested through their ability to inhibit the enzyme tyrosinase and thus to suppress melanin synthesis.
The inhibiting action of the compounds of the formula I or Ia against tyrosinase was assessed using tyrosinase from fungi and L-DOPA as substrate.
The compounds (1) and (2), as obtained in Example 1, and L-dopa are pre-incubated for 10 minutes at 25° C. in phosphate buffer (pH 6.8), and tyrosinase from fungi (16U) (Fluka) is subsequently added. The optical density of the samples is measured at 470 nm against a negative control (without active compound). Kojic acid and 4-hexylresorcinol are also tested as tyrosinase reference, i.e. positive control.
The results are shown in the following table, expressed in the IC50 value (the concentration of the test compound at which 50% of the tyrosinase activity is inhibited).

`O=c1cc(CO)occ1O` [Kojic acid] gave an IC50 of 12 µM.

With `CCCCCCc1ccc(O)cc1O` [4-Hexylresorcinol] the IC50 was 0.5 µM.

`CCCCCCc1ccc(OC(=O)C2CCC(=O)N2)cc1O` (stereo not drawn) [(1), 4-Hexyl-3-hydroxyphenyl 2-pyrrolidinone-5-carboxylate] gave an IC50 of 19 µM.
